# Results as given in publication PMC8402609, “Guiding the Immune Response to a Conserved Epitope in MSP2, an Intrinsically Disordered Malaria Vaccine Candidate” (Vaccines, 2021).
# Where a SMILES comes first, the peptide text is derived from it. Bridges are numbered along the chain shown (N, C = ends). Roman numbers before positions name the chains, in order.
# Columns and labels:
# [1] = tested on: 4D11 IgG; experiment: ELISA binding of 4D11 IgG against BSA-peptide conjugates; design: species or system mouse; details: peptide maleimide-conjugated to BSA coated on plate
# Experimental: […] The plates were blocked with 1% BSA in PBS for 1 h before adding 100 µL of 4D11 and 9H4 IgG in eleven half log10 serial dilutions starting from stock at 1 µg/mL. After 1 h incubation at 4 °C and washing, antigen-bound antibodies were detected with goat anti-mouse IgG (1:2000 dilution) and freshly prepared 2,2-azinobis(3-ethylbenzthiazolinesulfonic acid (ABTS) substrate (1 mm) in citric acid buffer, pH 4.2, containing […]. The absorbance was read at 405 nm using a microplate reader. For determination of peptide-specific antibody titres, peptide-BSA conjugate was coated on the plate at 2 µg/mL. Individual mouse sera were added at a starting dilution of 1000-fold with six half log10 serial dilutions. Endpoint titres were taken as the x-axis intercept of the dilution curve at an absorbance value of three standard deviations (s.d.) greater than OD405 for naïve mouse serum. The fine specificities of the antisera were determined by ELISA using an array of nine biotinylated 13-residue peptides (A-I), which overlap by 2 or 3 residues and spanned the C-terminal region of MSP2 [11, 13]. […] Antibody was detected with the same protocol as mentioned above.
# Anti-peptide antibody titres in the sera of immunised mice were determined using ELISA plates coated with the corresponding peptide-bovine serum albumin (BSA) conjugates. […]
# [2] = tested on: biotinylated 13-residue peptides (A-I) spanning the C-terminal region of MSP2; experiment: Fine specificity of antisera by peptide array ELISA (peptides A-I); type: in vivo, mouse; details: individual sera of mice immunised with peptide-KLH conjugate or MSP2 mix, diluted 1:1000; indirect ELISA; peptides C-D span 9H4 epitope, E-G span 4D11 epitope
# Experimental: Peptide was conjugated to maleimide-activated KLH (Sigma-Aldrich) following the manufacturer’s protocol. Briefly, 1 mg of each peptide was mixed with 1 mg KLH in the provided buffer for a 200-fold molar excess of peptide to carrier protein. The reaction mixture was degassed under nitrogen and mixed at room temperature (RT) for 2 h. Any unreacted peptide was removed by dialysis against PBS using a 10 kDa cut-off membrane. The extent of conjugation was determined using Ellman’s reagent. Peptide-KLH conjugate stock solution was stored at 4 °C until further use. Prior to immunisation, peptide-KLH conjugates were diluted to 1 mg/mL in PBS and formulated with Montanide ISA720 at an antigen:adjuvant ratio of 3:7 and a final concentration of 0.3 mg/mL. The 3D7 + FC27 MSP2 mix was formulated using 0.15 mg/mL of each allelic form. Female C57BL/6 mice (n = 6 per group) were inoculated subcutaneously with 100 µL containing 30 µg of antigen at weeks 0, 4 and 8, then euthanised at week 10. Sera were collected and stored at −80 °C.
# To determine peptide-KLH binding to 4D11 and 9H4, Maxisorp 96-well microtitre plates (Nunc, Rochester, NY, USA) were coated overnight at 4 °C with 2 µg/mL peptide-KLH in PBS. The plates were blocked with 1% BSA in PBS for 1 h before adding 100 µL of 4D11 and 9H4 IgG in eleven half log10 serial dilutions starting from stock at 1 µg/mL. After 1 h incubation at 4 °C and washing, antigen-bound antibodies were detected with goat anti-mouse IgG (1:2000 dilution) and freshly prepared 2,2-azinobis(3-ethylbenzthiazolinesulfonic acid (ABTS) substrate (1 mm) in citric acid buffer, pH 4.2, containing […]. The absorbance was read at 405 nm using a microplate reader. For determination of peptide-specific antibody titres, peptide-BSA conjugate was coated on the plate at 2 µg/mL. Individual mouse sera were added at a starting dilution of 1000-fold with six half log10 serial dilutions. Endpoint titres were taken as the x-axis intercept of the dilution curve at an absorbance value of three standard deviations (s.d.) greater than OD405 for naïve mouse serum. The fine specificities of the antisera were determined by ELISA using an array of nine biotinylated 13-residue peptides (A-I), which overlap by 2 or 3 residues and spanned the C-terminal region of MSP2 [11, 13]. Maxisorp 96-well microtitre plates (Nunc) were coated overnight at 4 °C with 1 µg/mL streptavidin in PBS. The plates were blocked with 1% BSA in PBS for 2 h before adding 1:500 biotinylated peptides. Individual sera samples were diluted 1:1000 in blocking solution before addition to the peptide array. Antibody was detected with the same protocol as mentioned above.
# To characterise the response against these dimeric peptides further, the specificity of the induced antibodies was determined by indirect ELISA using an array of nine biotinylated peptides that spanned the epitopes recognised by the 4D11 and 9H4 mAbs (peptides A-I) (Table 3). Peptides C and D spanned the 9H4 epitope, whilst peptides E to G spanned the 4D11 epitope. […] However, the response against MSP2 was largely dominated by a single mouse in the group.
# [3] = tested on: FC27 (D10 clone) merozoites; experiment: Merozoite ELISA with pooled mouse sera, FC27 merozoites; type: in vivo, P. falciparum; details: pooled sera of immunised mice, two-fold dilutions from 1:500; merozoites 1 × 10^7/well; OD 450 nm; rank order in words
# Experimental: (§1) The reactivity of mouse polyclonal antibodies with merozoites was determined by ELISA using merozoites from both the 3D7 and FC27 (D10 clone) strains of P. falciparum. The parasites were cultured in human erythrocytes at a haematocrit of 3% in RPMI media supplemented with […]. Viable merozoites were isolated as described previously. Highly synchronised late-stage schizonts were magnet-purified via a MACS magnet separation column (Miltenyi Biotec, Macquarie Park, Australia) and treated with E64 protease inhibitor (ThermoFisher Scientific, Scoresby, Australia) until mature merozoites were formed. Merozoites were released forcing them through a 1.2 µm filter.
# Purified whole merozoites were resuspended in PBS supplemented with a cocktail of protease inhibitors (Roche, Castle Hill, Australia). Isolated merozoites were used to coat Nunc Maxisorp™ plates at 1 × 10^7/well and incubated overnight at 4 °C. The plates were then blocked with 1% casein in PBS at 37 °C for 2 h (or overnight at 4 °C). Pooled sera samples were added to wells at two-fold serial dilution in duplicate with a starting dilution of 1:500 and incubated at RT for 1 h. The plates were further incubated with HRP-conjugated goat anti-mouse IgG antibody diluted at 1:1000 in 0.1% casein in PBS at RT for 1 h. The plates were washed six times with PBS between each incubation step. […] The OD was measured at 450 nm. […]
# [4] = tested on: 3D7 merozoites; experiment: Merozoite ELISA with pooled mouse sera, 3D7 merozoites; type: in vivo, P. falciparum; details: pooled sera of immunised mice, two-fold dilutions from 1:500; merozoites 1 × 10^7/well; OD 450 nm; rank order in words
# Experimental: as §1
# Purified whole merozoites were resuspended in PBS supplemented with a cocktail of protease inhibitors (Roche, Castle Hill, Australia). Isolated merozoites were used to coat Nunc Maxisorp™ plates at 1 × 10^7/well and incubated overnight at 4 °C. The plates were then blocked with 1% casein in PBS at 37 °C for 2 h (or overnight at 4 °C). Pooled sera samples were added to wells at two-fold serial dilution in duplicate with a starting dilution of 1:500 and incubated at RT for 1 h. The plates were further incubated with HRP-conjugated goat anti-mouse IgG antibody diluted at 1:1000 in 0.1% casein in PBS at RT for 1 h. The plates were washed six times with PBS between each incubation step. Finally, 3,3′,5,5′-tetramethylbenzidine (TMB) substrate (Thermo Fisher Scientific, Scoresby, Australia) was added to the wells for the development of colour for 15 min and the reaction was stopped with 1 M sulfuric acid. The OD was measured at 450 nm.
# The ability to induce an immune response that can recognise parasite MSP2 is essential in the design of an MSP2-based peptide vaccine. We isolated merozoites from both 3D7 and FC27 (D10 clone) strains of P. falciparum, coated them on ELISA plates and probed them with sera from the immunised mice (Figure 6). mAb 4D11 and the MSP2 mix pre-bleed were also included as positive and negative controls, respectively.
Molecule,4D11 IgG binding to BSA-peptide conjugate [1],specificity of the induced antibodies (peptide array A-I) [2],reactivity of pooled sera with FC27 merozoites [3],reactivity of pooled sera with 3D7 merozoites [4]
"SKWICANRSVCPI [non-relevant peptide maleimide-conjugated to BSA, linker control]",no 4D11 IgG binding,–,–,–
CC(=O)N[C@@H](CC(N)=O)C(=O)N[C@@H](CCCCN)C(=O)N[C@@H](CCC(=O)O)C(=O)N[C@@H](CC(N)=O)C(=O)N[C@@H](CSSC[C@H](NC(=O)[C@H](CC(N)=O)NC(=O)[C@H](CCC(=O)O)NC(=O)[C@H](CCCCN)NC(=O)[C@H](CC(N)=O)NC(C)=O)C(=O)NCC(=O)N[C@@H](C)C(=O)N[C@@H](C)C(=O)N[C@@H](CS)C(N)=O)C(=O)NCC(=O)N[C@@H](C)C(=O)N[C@@H](C)C(N)=O [Peptide D1] (I: Ac-NKENCGAAC-NH2 / II: Ac-NKENCGAA-NH2; disulfide I:5-II:5),–,almost exclusively directed to the 4D11 epitope,weak reactivity,weak reactivity
